# In patent US20100255580A1, “Differentiation of Human Embryonic Stem Cells” (LIFESCCAN, INC., priority 2007, published 2010):
# System: H9 embryonic stem cells
# Format: cell-based, human
# Conditions: low serum
# Protocol: Controls for each group included cells plated on […]-coated dishes and cultured in MEF-conditioned medium or cells plated on MEFs and cultured in ES medium. All groups contained three biological replicates and each biological replicate was repeated on two separate gene chips.
# Sample preparation, hybridization, and image analysis were performed according to the Affymetrix Human Genome U133 Plus 2.0 Array. Following normalization and a log transformation, data analysis was performed using OmniViz® software (MA) and […] (VizXLabs, WA). Significant differences in gene expression between the samples were evaluated using analysis of variance and an F-test with adjusted P-value (Benjamini and
# Hochberg correction) of ≦b 0.05. Only genes with a present call in at least one group were included in the analysis.
substance,measurement,setting,value
Activin A: a member of the TGFβ superfamily; R&D Systems; Group 2 = Activin A (100 ng/ml),"log intensity, nudix (nucleoside diphosphate linked moiety X)-type motif 4",on MATRIGEL,2.095
same,"log intensity, olfactory receptor, family 52, subfamily A, member 1 (OR52A1)",on MATRIGEL,−0.3096
same,"log intensity, oxoglutarate dehydrogenase (lipoamide) (OGDH)",on MATRIGEL,−0.03259
same,"log intensity, partial LHX9 gene for LIM-homeobox 9, 3UTR",on MATRIGEL,−2.2486
same,"log intensity, partial mRNA for putative nuclear factor",on MATRIGEL,1.552
same,"log intensity, phosphatidylinositol-4-phosphate 5-kinase, type I, beta (PIP5K1B)",on MATRIGEL,1.349
same,"log intensity, phosphofructokinase, liver (PFKL)",on MATRIGEL,2.039
same,"log intensity, pilin-like transcription factor (PILB)",on MATRIGEL,3.145
same,"log intensity, pleiomorphic adenoma gene-like 1",on MATRIGEL,−0.6468
same,"log intensity, plexin A2",on MATRIGEL,0.9305
same,"log intensity, polycythemia rubra vera 1; cell surface receptor (PRV1)",on MATRIGEL,−1.196
same,"log intensity, porcupine (MG61)",on MATRIGEL,1.518
same,"log intensity, protease, serine, 4 (trypsin 4, brain)",on MATRIGEL,−0.3456
same,"log intensity, protein S (alpha) (PROS1)",on MATRIGEL,0.5776
same,"log intensity, protocadherin 10",on MATRIGEL,1.767
same,"log intensity, putative 47 kDa protein (r448)",on MATRIGEL,−0.1239
same,"log intensity, putative 47 kDa protein (r770)",on MATRIGEL,0.1565
same,"log intensity, putative sterol reductase SR-1 (TM7SF2)",on MATRIGEL,1.669
same,"log intensity, ras homolog gene family, member B",on MATRIGEL,−0.1231
same,"log intensity, receptor tyrosine kinase-like orphan receptor 2 (ROR2)",on MATRIGEL,1.533
same,"log intensity, regulator of G protein signalling 5 (RGS5)",on MATRIGEL,3.0091
same,"log intensity, ret finger protein-like 2 (RFPL2)",on MATRIGEL,−2.155
same,"log intensity, secreted apoptosis related protein 2 (SARP2)",on MATRIGEL,3.184
same,"log intensity, secreted frizzled-related protein 1",on MATRIGEL,1.649
same,"log intensity, sialyltransferase (STHM)",on MATRIGEL,−0.6871
same,"log intensity, signal transducer and activator of transcription 3 (acute-phase response factor)",on MATRIGEL,−0.8373
same,"log intensity, singed (Drosophila)-like (sea urchin fascin homolog like) (SNL)",on MATRIGEL,4.233
same,"log intensity, sodium dependent phosphate transporter isoform NaPi-IIb",on MATRIGEL,−0.3971
same,"log intensity, solute carrier (SLC25A18)",on MATRIGEL,0.4037
same,"log intensity, solute carrier family 9 (sodiumhydrogen exchanger), isoform 5 (SLC9A5)",on MATRIGEL,0.04749
same,"log intensity, stanniocalcin 1 (STC1), mRNA",on MATRIGEL,2.394
same,"log intensity, stanniocalcin 1 (r1113)",on MATRIGEL,2.487
same,"log intensity, testican 3 (HSAJ1454)",on MATRIGEL,−2.812
same,"log intensity, testis enhanced gene transcript (BAX inhibitor 1)",on MATRIGEL,−0.6952
same,"log intensity, thyrotropin-releasing hormone (TRH)",on MATRIGEL,−1.657
same,"log intensity, transcription factor 2, hepatic; LF-B3; variant hepatic nuclear factor (TCF2), transcript variant a",on MATRIGEL,−1.125
same,"log intensity, transcriptional activator of the c-fos promoter (CROC4)",on MATRIGEL,0.6664
same,"log intensity, transmembrane tyrosine kinase mRNA",on MATRIGEL,−0.006089
same,"log intensity, tropomodulin, clone MGC: 3643",on MATRIGEL,0.3488
same,"log intensity, tryptase, alpha",on MATRIGEL,2.991
same,"log intensity, tudor repeat associator with PCTAIRE 2",on MATRIGEL,2.158
same,"log intensity, tyrosine 3-monooxygenasetryptophan 5-monooxygenase activation protein, eta polypeptide (r705)",on MATRIGEL,2.985
same,"log intensity, tyrosine 3-monooxygenasetryptophan 5-monooxygenase activation protein, eta polypeptide (r966)",on MATRIGEL,3.483
same,"log intensity, AD036 mRNA",on MEFS,1.603
same,"log intensity, ADP-ribosylation factor 4-like (ARF4L)",on MEFS,4.48
same,"log intensity, BACE mRNA for beta-site APP cleaving enzyme I-476",on MEFS,1.446
same,"log intensity, BTB (POZ) domain containing 2 (BTBD2)",on MEFS,2.325
same,"log intensity, CXCR4 gene encoding receptor CXCR4",on MEFS,6.361
same,"log intensity, Cluster Incl. AB002344: Human mRNA for KIAA0346 gene (r901)",on MEFS,3.478
same,"log intensity, Cluster Incl. AB002344: Human mRNA for KIAA0346 gene (r941)",on MEFS,3.317
same,"log intensity, Cluster Incl. L37033: Human FK-506 binding protein homologue (FKBP38)",on MEFS,1.661
same,"log intensity, Cluster Incl. N80935: zb07g06.s1 Homo sapiens cDNA",on MEFS,2.666
same,"log intensity, ESTs (r403)",on MEFS,2.715
same,"log intensity, ESTs (r404)",on MEFS,2.276
same,"log intensity, ESTs (r405)",on MEFS,−1.711
same,"log intensity, ESTs (r442)",on MEFS,5.906
same,"log intensity, ESTs (r453)",on MEFS,−2.153
same,"log intensity, ESTs (r473)",on MEFS,0.8364
same,"log intensity, ESTs (r491)",on MEFS,−0.4453
same,"log intensity, ESTs (r522)",on MEFS,2.214
same,"log intensity, ESTs (r523)",on MEFS,0.05049
same,"log intensity, ESTs (r524)",on MEFS,2.399
same,"log intensity, ESTs (r556)",on MEFS,0.7383
same,"log intensity, ESTs (r567)",on MEFS,1.124
same,"log intensity, ESTs (r627)",on MEFS,3.973
same,"log intensity, ESTs (r741)",on MEFS,2.614
same,"log intensity, ESTs (r745)",on MEFS,3.836
same,"log intensity, ESTs (r766)",on MEFS,2.128
same,"log intensity, ESTs (r767)",on MEFS,−0.3504
same,"log intensity, ESTs (r891)",on MEFS,−0.1307
same,"log intensity, ESTs (r916)",on MEFS,1.395
same,"log intensity, ESTs (r938)",on MEFS,−0.6132
same,"log intensity, ESTs (r980)",on MEFS,0.5547
same,"log intensity, ESTs (r1021)",on MEFS,0.6436
same,"log intensity, ESTs (r1022)",on MEFS,3.471
same,"log intensity, ESTs (r1059)",on MEFS,2.077
same,"log intensity, ESTs (r1060)",on MEFS,2.463
same,"log intensity, ESTs (r1110)",on MEFS,3.792
same,"log intensity, ESTs (r1115)",on MEFS,2.521
same,"log intensity, ESTs, Highly similar to AF229172 1 class III myosin",on MEFS,0.002417
same,"log intensity, ESTs, Moderately similar to ALU4_HUMAN ALU SUBFAMILY SB2",on MEFS,−0.9837
same,"log intensity, ESTs, Moderately similar to JC4969 pig-c protein",on MEFS,−1.045
same,"log intensity, ESTs, Moderately similar to NFY-C",on MEFS,−0.2427
same,"log intensity, ESTs, Weakly similar to A46302 PTB-associated splicing factor, long form",on MEFS,2.695
same,"log intensity, ESTs, Weakly similar to ALU8_HUMAN ALU SUBFAMILY SX",on MEFS,4.578
same,"log intensity, ESTs, Weakly similar to ALUC_HUMAN",on MEFS,2.7193
same,"log intensity, ESTs, Weakly similar to ALUF_HUMAN",on MEFS,0.5876
same,"log intensity, ESTs, Weakly similar to KIAA1330 protein",on MEFS,1.182
same,"log intensity, ESTs, Weakly similar to KIAA1399 protein",on MEFS,2.8
same,"log intensity, ESTs, Weakly similar to T32252 hypothetical protein T15B7.2",on MEFS,3.333
same,"log intensity, ESTs, Weakly similar to Z132_HUMAN ZINC FINGER PROTEIN 13",on MEFS,2.122
same,"log intensity, F37Esophageal cancer-related gene-coding leucine-zipper motif (FEZ1)",on MEFS,2.104
same,"log intensity, FLICE-like inhibitory protein short form",on MEFS,4.928
same,"log intensity, GS1999full mRNA",on MEFS,0.8499
same,"log intensity, H1 histone family, member X (H1FX)",on MEFS,4.51
same,"log intensity, H2A histone family, member X",on MEFS,−0.04057
same,"log intensity, H. sapiens skeletal embryonic myosin light chain 1 (MLC1)",on MEFS,2.36
same,"log intensity, HT016 mRNA",on MEFS,2.452
same,"log intensity, Homo sapiens nudix (nucleoside diphosphate linked moiety X)-type motif (r1198)",on MEFS,6.428
same,"log intensity, Human DNA sequence from clone RP4-781L3 on chromosome 1p34.3-36.11",on MEFS,4.439
same,"log intensity, Human DNA sequence from clone RP11-446H13 on chromosome 10",on MEFS,2.12
same,"log intensity, Human MLC1emb gene for embryonic myosin alkaline light chain, promoter and exon 1",on MEFS,4.04
same,"log intensity, Human clone 23826 mRNA sequence",on MEFS,1.443
same,"log intensity, Human embryonic myosin alkali light chain (MLC1)",on MEFS,4.115
same,"log intensity, Human extracellular matrix protein 1 (ECM1)",on MEFS,1.376
same,"log intensity, Human mRNA for pro-alpha 1 (II) collagen 3end C-term.",on MEFS,2.157
same,"log intensity, Human rho GDI mRNA",on MEFS,−0.6515
same,"log intensity, KIAA0127 gene product (KIAA0127)",on MEFS,3.002
same,"log intensity, KIAA0346 protein",on MEFS,1.415
same,"log intensity, KIAA0418 gene product",on MEFS,0.03438
same,"log intensity, KIAA0761 protein",on MEFS,1.059
same,"log intensity, KIAA0882 protein",on MEFS,4.675
same,"log intensity, KIAA0918 protein",on MEFS,−0.575
same,"log intensity, KIAA1415 protein",on MEFS,1.743
same,"log intensity, KIAA1511 protein",on MEFS,1.575
same,"log intensity, Kruppel-like factor 8 (KLF8)",on MEFS,1.639
same,"log intensity, LIM homeobox protein 1 (LHX1)",on MEFS,0.08556
same,"log intensity, LYST-interacting protein LIP3",on MEFS,−0.3125
same,"log intensity, MAD (mothers against decapentaplegic, Drosophila) homolog 6 (MADH6)",on MEFS,3.5309
same,"log intensity, MYC-associated zinc finger protein (purine-binding transcription factor) (MAZ)",on MEFS,0.5113
same,"log intensity, Novel human mRNA from chromosome 22",on MEFS,3.058
same,"log intensity, PNAS-145 mRNA",on MEFS,4.2868
same,"log intensity, PRO1957 mRNA",on MEFS,4.227
same,"log intensity, PTPRF interacting protein, binding protein 2 (liprin beta 2)",on MEFS,2.773
same,"log intensity, Pig10 (PIG10)",on MEFS,1.098
same,"log intensity, SG2NA beta isoform",on MEFS,−1.534
same,"log intensity, Similar to B9 protein, clone MGC: 11339",on MEFS,2.292
same,"log intensity, Similar to RIKEN cDNA C330013D18 gene, clone MGC: 11226",on MEFS,1.427
same,"log intensity, Similar to lipase protein, clone MGC: 2843",on MEFS,0.9617
same,"log intensity, X75208 H. sapiens HEK2 mRNA for protein tyrosine kinase receptor",on MEFS,1.082
same,"log intensity, adaptor-related protein complex 3, beta 2 subunit (AP3B2)",on MEFS,1.074
same,"log intensity, adenylate cyclase 8 (brain) (ADCY8)",on MEFS,−2.261
same,"log intensity, alpha 2,8-sialyltransferase",on MEFS,1.055
same,"log intensity, aminolevulinate, delta-, dehydratase, clone MGC: 5057",on MEFS,2.769
same,"log intensity, annexin A6 (ANXA6), transcript variant 1",on MEFS,4.5
same,"log intensity, apolipoprotein A-II (APOA2)",on MEFS,4.759
same,"log intensity, apolipoprotein C-I (APOC1)",on MEFS,5.51
same,"log intensity, arrestin, beta 1 (ARRB1), transcript variant 1",on MEFS,−0.4092
